Where two headings read alike, the source gives them in different places.
How the values were obtained:
[1] = test system: guinea pig papillary muscle; details: Block and Covino, 1981, Courtney, 1984, Kotelko et al.; cited from earlier work
[2] = test system: peripheral nerve endings of the epidermis; assay: Intracutaneous wheals, infiltration anesthesia on forearms of man; assay type: in vivo; details: Conc. 0.25%; 12 healthy volunteers, pinprick
Excerpt: By use of intracutaneous wheals it is possible to measure the analgesic effect of an anesthetic on the peripheral nerve endings of the epidermis.
This technique gives information about:
(1) The duration of anesthesia.
^1 Infiltration anesthesia on forearms of man. The test solutions wer
injected intracutaneously on the dorsum of the forearms of 12 healthy
volunteers, 20-25 years old. Three wheals were made on each arm in a
rotating system in a doublebind fashion. The local anesthetic effect was
tested using a pinprick technique. The "duration of anesthesia" was
defined as the time during which none out of six pinpricks into the wheal
was felt. The method has been described by Dhuner et al. (1972). […]

[3] = Force of contraction of guinea pig papillary muscle; assay type: cell-based; details: guinea pig, papillary muscle
Protocol: (§1) In order to initiate an investigation without the necessity to involve voltage-clamp of the calcium current, the preparations were subject to long depolarizing induced automaticity. If the cells are depolarized from about -50 to about -30 mV the automaticity is dependent on a transmembrane calcium current.
(§2) Guinea pig papillary tests were carried out according to the recommendation of the "Report of the Subcommittee on Cardiotoxicity of Local Anesthetics" (Leroy D. Vandam, M.D., chairman). […] Solutions maintained at 37° C.±0.5° continuously perfused the gap compartments. The rear chamber contained isotonic potassium chloride solution. The drugs were added to a Tris-Tyrode solution passing the tip of the muscle. […] It was adjusted to pH 7.4 with trismaleate and HCl before use and gassed with 100% oxygen. Isotonic sucrose solution isolated the rear from the tip to enable current- and voltage-clamping.
(§3) The force of contraction was measured with a strain gauge transducer before and after the addition of the test compounds to the medium. The percent reduction in maximum force of contraction from the control was calculated.

[4] = test system: guinea pig papillary muscle; assay: as above; assay type: cell-based
Protocol: as §1, §2, §3

[5] = test system: tissue; assay: Tissue toxicity limits (Trypan blue test, threshold of tissue irritancy); assay type: in vivo; details: Trypan blue test; approximate threshold values of tissue irritancy; racemate
Excerpt: The toxicity of the homologous series of N-alkylpipecolic acid-2,6-xylidides increases step wise and quickly with the lengthening of the alkyl chain. This is manifest from Table 1 set forth below, which compares racemic mixtures of alkyl homologues having from 1 to 5 carbon atoms.
*Trypan blue test; Hoppe et al. (1950), 39, 147-151 "Use of Trypan Blue
and Rabbit Eye Tests For Irritation", J. Amer. Pharm. Assoc. (Scient.
Ed.), the values are approximate threshold values of tissue irritancy.

[6] = in vivo; details: mouse, iv, 50% mortality of mice, racemate
[7] = test system: skin; assay: Skin temperature measurements within intracutaneous wheals; assay type: in vivo, man; details: Conc. 0.25%, HCl-salt, 10 minutes after injection
Protocol: The mean value of 6 wheals for each substance forms the basis for the values. The control values, however, represent the mean value obtained from 4 different sites measured outside the wheals 90 degrees apart and 2 centimeters from the wheal's center.
In the temperature measurements, an Oriel temperature apparatus* has been used. This is battery driven and is connected to a detector (diameter, 2.5 mm) and has an accuracy of ±0.1° C. The temperature of the skin is measured by pressing the detector against the skin with a pressure of 100 grams. It is retained against the skin until a constant temperature is obtained.
In Table 4, T1 is the measurement obtained at the center of the wheal, and T2 is the average of four measurements taken 90 degrees apart outside of the wheal and within 2 centimeters of the wheal's center.

[8] = test system: ulnar volar nerves; assay: Finger blockade, digital nerve blocks in man; assay type: in vivo; details: Concentration 0.25%
Protocol: ^2 Digital nerve blocks in man. The test solutions were injected to
block the ulnar volar nerves on the 2nd and 4th fingers of the same
volunteers who had participated in the intracutaneous wheal tests
described above. The tests were carried out in a double blind fashion in
rotating system, so that each solution was used with equal frequency on
each of the blocked fingers. A total of for injections 1.0 ml per
injection, was done in each subject. One week later the procedure was
repeated in the same subjects using the remaining test solutions. This
method has been described by Dhuner et al. (1972) (for citation see Table
2 footnote 1). To measure the efficacy and duration of the blocks, the
individual fingers were pricked rapidly 10 times with a needle algesimete
and the number of painful pricks noted. Each finger was tested every five
minutes until complete recovery. The time of complete anesthesia has been
called "duration of anesthesia".
*i.e. the time from injection to complete analgesia?
**i.e. the number of successful anesthesias of total number of
anesthesias performed (no anesthesia is possible if the ulnar volar nerve
are not contacted by the anesthetic).

[9] = target: T1, guinea-pig papillary muscle sodium channels (Cavia porcellus, UniProt H0V4Z8); assay: Action on guinea-pig papillary muscle sodium channels (Vmax, recovery from block); assay type: cell-based; details: for recovery to 90% of drug-blocked channels: -90 mV; for potency on cardiac sodium channels: equimolar concentrations; for recovery from block: especially at hyperpolarized levels (-100--120 mV)
T1 construct: Vmax of action potential as measure of sodium current
Excerpt: Depression of cardiac conduction appears to be one of the primary mechanisms underlying local anesthetic cardiotoxicity. Depression of conduction by local anesthetics in both nerve and cardiac tissue results from a block of sodium channels. Furthermore, the degree of sodium channel block by local anesthetics is dependent upon the state of the sodium channel. […] Consequently, a block of sodium channels develops during the upstroke and plateau of the action potential and dissipates during the diastolic interval between beats. Since the effect of a local anesthetic is both state and time dependent, changes in both heart rate and diastolic membrane potential may alter drug action substantially.
Guinea pig papillary tests were carried out according to the recommendation of the "Report of the Subcommittee on Cardiotoxicity of Local Anesthetics" (Leroy D. Vandam, M.D., chairman). Guinea pig papillary muscle excised from the right ventricle were mounted in a single sucrose gap apparatus (Arlock & Katzune, 1985). Solutions maintained at 37° C.±0.5° continuously perfused the gap compartments. The rear chamber contained isotonic potassium chloride solution. The drugs were added to a Tris-Tyrode solution passing the tip of the muscle. The Tris-Tyrode solution contained (mM): NaCl, 145; KCl, 4; CaCl2, 1.2; MgCl2, 1.05; glucose, 5.5 Tris maleate, 5. It was adjusted to pH 7.4 with trismaleate and HCl before use and gassed with 100% oxygen. Isotonic sucrose solution isolated the rear from the tip to enable current- and voltage-clamping.
The muscles were depolarized with long current pulses (1500 msec). These current steps can induce automaticity or DIA (depolarization induced automaticity). The steps were adjusted so the preparations were depolarized to from -50 to -30 mV since that is in that range that calcium current conductance is initiated.
The results represent the mean from representative experiments. In the absence of drug, Vmax (maximum upstroke velocity of the action potential) recovers from inactivation with an exponential time constant of less that 30 msec at -90 mV (Gettes and Reuter, 1974). […] The time constant of this recovery process is different for channels blocked by different drugs.

[10] = test system: pigs; assay: Intracoronary administration in anesthetized pigs; assay type: in vivo, pig
Protocol: Eight pigs weighing around 50 kg were anesthetized with a continuous infusion of pentobarbital at 600 mg/h. Ventilation was established via a tracheotomy with 30% oxygen in nitrogen and normoventilation by a Siemens-Elema Servoventilator 900B. The following catheters were inserted after cutdown: Left ventricular, aortic, pulmonary arterial, great cardiac venous, left anterior descending coronary, arterial and central venous. […] The corresponding doses for bupivaciane were 0.25, 0.5, 1, 2 and 4 mg and for LEA 0.33, 0.66, 1.33, 2.66 and 5.33 mg. The injection rate was adjusted according to the preinjection coronary blood flow. Each series of drug injections was preceded by a placebo infusion. Total hemodynamic and electrocardiographic recovery was allowed between doses and there was a one hour resting period between drugs.
Central pressures, left ventricular dP/dT and a complete chest lead ECG were recorded continuously. Cardiac output and great cardiac venous blood flow were determined before and directly after each dose of the local anesthetic agent.

[11] = test system: conscious rats; assay: Heart-toxicity in conscious rats (ECG); assay type: in vivo, Male Sprague Dawley rats; details: for potency to induce atrioventricular conduction disturbances: rat, in vivo
Protocol: Male Sprague Dawley rats weighing 290-360 grams were prepared with intravenous catheters under local anesthesia using prilocaine (Citanest*) one hour before experiments. Rapid intravenous bolus injections over 5.0 seconds were given to groups of 8 rats, with a single injection to each animal. […] The ECG was recorded on a Mingograf 34. Convulsions were recorded manually with an electronic marker on one channel of the Mingograf. Only "primary" arrhythmias occurring during the first 60 seconds have been analyzed to avoid confusion with late arrhythmias occurring secondary to respiratory arrest or cardiovascular collapse.

[12] = listed as 5; cited from earlier work
[13] = test system: tissue; details: in vivo, cited from earlier work
[14] = background statement; cited from earlier work

CCCCN1CCCCC1C(=O)Nc1c(C)cccc1C (racemic) [4 R, N--n-butylpipecolic acid-2,6-xylidide]
negative inotropic effect [1]: potent negative inotropic effect | Analgesia-duration, intracutaneous wheals [2]: 118 ± 15 min | inhibition at 5 µM [3]: 45.1% | inhibition at 10 µM [3]: 41.7% | effect on force of contraction/contractility [4]: pronounced depressant action | Tissue toxicity limits in % [5]: 0.75% | LD50 [6]: 7.8 mg/kg | Temperature Difference (T1 wheal vs T2 controls) [7]: -0.6 °C | T1 Intracutaneous Wheal temperature ([7]; mean of 6 wheals): 31.5 °C | Analgesia-duration, finger blockade [8]: 388 ± 50 min | Frequency (successful anesthesias of total performed) [8]: 15/20 | Time of onset, finger blockade ([8]; time from injection to complete analgesia): 9 ± 2 min | affinity for the activated and inactivated channels [9]: very high affinity | recovery to 90% of drug-blocked channels [9]: 3561 ms | potency on cardiac sodium channels [9]: highest | recovery from block [9]: very slow | death in ventricular fibrillation ([10]; 4 mg intracoronary, eight pigs): Two animals died in ventricular fibrillation | ventricular fibrillation (VF), time after injection ([10]; 4 mg intracoronary, listed as bupivacaine): ≤ 33 s | sudden cardiac collapse ([10]; intracoronary): occurred | potency to induce atrioventricular conduction disturbances [11]: most potent

CCCCCN1CCCCC1C(=O)Nc1c(C)cccc1C (stereo not drawn) [5 R, N--n-pentylpipecolic acid-2,6-xylidide]
solubility in water [12]: slightly soluble | tissue irritation [13]: irritating | tissue irritation ([13]; listed as 5): too irritating against tissue

CCN(CC)CC(=O)Nc1c(C)cccc1C [Lidocaine, 2-diethylamino-2',6'-acetoxylidide]
local anesthetic effect duration for epidural use [14]: too short for epidural use | block of channels; fast component not measurable ([9]; 10 uM): virtually all channels were blocked | recovery to 90% of drug-blocked channels [9]: 308 ms | potency on cardiac sodium channels [9]: lowest potency | recovery from block [9]: considerably faster | Atrioventricular block, rats responding/total ([11]; 14 umol/kg i.v. bolus): 0/8 | Ventricular arrhythmias, rats responding/total ([11]; 14 umol/kg i.v. bolus): 0/8 | Atrioventricular block, rats responding/total ([11]; 20 umol/kg i.v. bolus): 0/8 | Ventricular arrhythmias, rats responding/total ([11]; 20 umol/kg i.v. bolus): 0/8 | Atrioventricular block, rats responding/total ([11]; 28 umol/kg i.v. bolus): 3/8 | Ventricular arrhythmias, rats responding/total ([11]; 28 umol/kg i.v. bolus): 0/8 | Atrioventricular block, rats responding/total ([11]; 40 umol/kg i.v. bolus): 4/8 | Ventricular arrhythmias, rats responding/total ([11]; 40 umol/kg i.v. bolus): 2/8 | Atrioventricular block, rats responding/total ([11]; 56 umol/kg i.v. bolus): 8/8 | Ventricular arrhythmias, rats responding/total ([11]; 56 umol/kg i.v. bolus): 1/8 | potency to induce atrioventricular conduction disturbances [11]: least potent

Source: US4695576A, “L-N-n-propylpipecolic acid-2,6-xylidide” (priority 1985, dated 1987)
